Laboratory results as given in PMC12102759 (Protein Science : A Publication of the Protein Society, 2025).

system: G3BP1 NFT2; assay type: binding, human; settings: library DMS-CoV; bait G3BP1 NFT2; prey N; peptide RNAPRITFGGPSDSTG; listed as aa = residue placed at this position; column sums to 1

Sequence	DMS PSSM value, N (position 2)	DMS PSSM value, D (position 13)	DMS PSSM value, I (position 6)	DMS PSSM value, G (position 10)	DMS PSSM value, S (position 14)	DMS PSSM value, F (position 8)	DMS PSSM value, A (position 3)	DMS PSSM value, G (position 9)	DMS PSSM value, R (position 5)	DMS PSSM value, G (position 16)
RNAPRITFGGPSDSTG N2W (RWAPRITFGGPSDSTG)	0									
RNAPRITFGGPSDSTG D13Y (RNAPRITFGGPSYSTG)		0								
RNAPRITFGGPSDSTG I6S (RNAPRSTFGGPSDSTG)			0							
RNAPRITFGGPSDSTG G10W (RNAPRITFGWPSDSTG)				0						
RNAPRITFGGPSDSTG N2E (REAPRITFGGPSDSTG)	0.4748									
RNAPRITFGGPSDSTG S14G (RNAPRITFGGPSDGTG)					0					
RNAPRITFGGPSDSTG F8P (RNAPRITPGGPSDSTG)						0				
RNAPRITFGGPSDSTG A3R (RNRPRITFGGPSDSTG)							0			
RNAPRITFGGPSDSTG A3P (RNPPRITFGGPSDSTG)							0			
RNAPRITFGGPSDSTG G10Q (RNAPRITFGQPSDSTG)				0						
RNAPRITFGGPSDSTG N2F (RFAPRITFGGPSDSTG)	0									
RNAPRITFGGPSDSTG G9A (RNAPRITFAGPSDSTG)								0		
RNAPRITFGGPSDSTG G9N (RNAPRITFNGPSDSTG)								0		
RNAPRITFGGPSDSTG R5M (RNAPMITFGGPSDSTG)									0.2004	
RNAPRITFGGPSDSTG I6D (RNAPRDTFGGPSDSTG)			0							
RNAPRITFGGPSDSTG G9V (RNAPRITFVGPSDSTG)								0		
RNAPRITFGGPSDSTG I6G (RNAPRGTFGGPSDSTG)			0							
RNAPRITFGGPSDSTG G16Q (RNAPRITFGGPSDSTQ)										0
RNAPRITFGGPSDSTG N2A (RAAPRITFGGPSDSTG)	0									

Sequence	DMS PSSM value, N (position 2)	DMS PSSM value, D (position 13)	DMS PSSM value, I (position 6)	DMS PSSM value, G (position 10)	DMS PSSM value, S (position 14)	DMS PSSM value, F (position 8)	DMS PSSM value, A (position 3)	DMS PSSM value, G (position 9)	DMS PSSM value, R (position 5)	DMS PSSM value, G (position 16)
RNAPRITFGGPSDSTG R5V (RNAPVITFGGPSDSTG)									0.006458	
RNAPRITFGGPSDSTG R5G (RNAPGITFGGPSDSTG)									0	
RNAPRITFGGPSDSTG R5K (RNAPKITFGGPSDSTG)									0.0001577	
RNAPRITFGGPSDSTG F8W (RNAPRITWGGPSDSTG)						0				
RNAPRITFGGPSDSTG S14D (RNAPRITFGGPSDDTG)					0					
RNAPRITFGGPSDSTG G9I (RNAPRITFIGPSDSTG)								0		
RNAPRITFGGPSDSTG S14T (RNAPRITFGGPSDTTG)					0					
RNAPRITFGGPSDSTG G16F (RNAPRITFGGPSDSTF)										0
RNAPRITFGGPSDSTG D13W (RNAPRITFGGPSWSTG)		0								
RNAPRITFGGPSDSTG S14F (RNAPRITFGGPSDFTG)					0					
RNAPRITFGGPSDSTG S14Y (RNAPRITFGGPSDYTG)					0					
RNAPRITFGGPSDSTG N2R (RRAPRITFGGPSDSTG)	0									
RNAPRITFGGPSDSTG G9L (RNAPRITFLGPSDSTG)								0		
RNAPRITFGGPSDSTG S14Q (RNAPRITFGGPSDQTG)					0					
RNAPRITFGGPSDSTG R5S (RNAPSITFGGPSDSTG)									0.002286	
RNAPRITFGGPSDSTG S14H (RNAPRITFGGPSDHTG)					0					
RNAPRITFGGPSDSTG G9M (RNAPRITFMGPSDSTG)								0		
RNAPRITFGGPSDSTG R5L (RNAPLITFGGPSDSTG)									0.01198	
RNAPRITFGGPSDSTG N2G (RGAPRITFGGPSDSTG)	0									

same assay, conditions: library DMS-CoV; bait G3BP1 NFT2; prey N; peptide RNAPRITFGGPSDSTG; listed as aa = residue placed at this position; column sums to 1

Sequence	DMS PSSM value, S (position 12)	DMS PSSM value, P (position 4)	DMS PSSM value, T (position 15)	DMS PSSM value, T (position 7)
RNAPRITFGGPSDSTG S12V (RNAPRITFGGPVDSTG)	0			
RNAPRITFGGPSDSTG P4V (RNAVRITFGGPSDSTG)		0		
RNAPRITFGGPSDSTG S12D (RNAPRITFGGPDDSTG)	0			
RNAPRITFGGPSDSTG T15A (RNAPRITFGGPSDSAG)			0	
RNAPRITFGGPSDSTG T7L (RNAPRILFGGPSDSTG)				0
RNAPRITFGGPSDSTG S12M (RNAPRITFGGPMDSTG)	0			
RNAPRITFGGPSDSTG P4Q (RNAQRITFGGPSDSTG)		0.08846		
RNAPRITFGGPSDSTG T15V (RNAPRITFGGPSDSVG)			0	
